Experimental data from the supplement of paper PMC13380429.

Legend:
Calu-3 [1] = experiment: drug sensitivity score (DSS) for viability; higher = more toxic; extreme values may be limits of the assay; details: 72 h
U2OS [2] = experiment: as above; details: 72 h
Caco-2 [3] = experiment: as above; details: 72 h
HepG2 [4] = experiment: as above; details: 72 h
Vero E6 [5] = experiment: as above; details: 72 h
Calu-3 [6] = experiment: relative viability EC50 (midpoint between 100% and the lowest measured viability); higher = less toxic; details: 72 h
U2OS [7] = experiment: as above; details: 72 h
Caco-2 [8] = experiment: as above; details: 72 h
HepG2 [9] = experiment: as above; details: 72 h
Vero E6 [10] = experiment: as above; details: 72 h
Calu-3 [11] = experiment: cell viability relative to DMSO; higher = less toxic; details: 72 h
U2OS [12] = experiment: as above; details: 72 h
Caco-2 [13] = experiment: as above; details: 72 h
HepG2 [14] = experiment: as above; details: 72 h
Vero E6 [15] = experiment: as above; details: 72 h
[16] = tested on: A549-ACE2 infected with SARS-CoV-2; experiment: SARS-CoV-2 infection rate relative to DMSO; higher = more infection; details: 24 h
A549-ACE2 [17] = experiment: drug-induced phospholipidosis relative to tamoxifen; higher = more phospholipidosis
[18] = tested on: A549-ACE2 infected with SARS-CoV-2; experiment: cell count relative to DMSO; higher = less toxic; details: 24 h
[19] = tested on: A549-ACE2 infected with SARS-CoV-2; experiment: morphology score (similarity to uninfected cells); higher = more like uninfected cells; details: 24 h
A549-ACE2 [20] = experiment: phospholipidosis EC50; higher = less potent phospholipidosis inducer

O=C1Cc2c([nH]c3ccc(Br)cc23)-c2ccccc2N1 [kenpaullone]
Details	drug sensitivity score	relative viability EC50 [µM]
Caco-2 [3]	0	–
Caco-2 [8]	–	> 10
Calu-3 [1]	0	–
Calu-3 [6]	–	> 10
HepG2 [4]	0	–
HepG2 [9]	–	> 10
U2OS [2]	0.3	–
U2OS [7]	–	> 10
Vero E6 [5]	0	–
Vero E6 [10]	–	> 10

Details	SARS-CoV-2 infection rate, [16] [%]	cell count, [18] [%]	cell viability, Caco-2 [13] [%]	cell viability, Calu-3 [11] [%]	cell viability, HepG2 [14] [%]	cell viability, U2OS [12] [%]	cell viability, Vero E6 [15] [%]	morphology score, [19]
1 nM	–	–	99.6	92.1	110	98.4	93.4	–
10 nM	–	–	93.2	95.1	96.2	98.9	93.6	–
100 nM	–	–	100	98.9	100	98.8	90.1	–
0.3 µM	106	103	–	–	–	–	–	0.06
1000 nM	–	–	102	113	108	104	101	–
3 µM	96	100	–	–	–	–	–	0.37
10000 nM	–	–	96	101	100	82.3	115	–
10 µM	94	85	–	–	–	–	–	0.47
30 µM	88	67	–	–	–	–	–	0.48

drug-induced phospholipidosis [%], A549-ACE2 [17]
Details	0.3 µM	0.833333 µM	3.33333 µM	6.66667 µM	10 µM	30 µM
24 h	-0.53	-1.07	-1.23	1.24	-0.93	4.23
48 h	1.47	-0.14	1.75	3.52	2.75	2.49
72 h	2.92	0.874	5.13	6.52	5.66	9.54

CN1CCC[C@@H](CC2c3ccccc3Sc3ccccc32)C1 (racemic) [metixene]
Details	SARS-CoV-2 infection rate [%]	cell count [%]	cell viability [%]	morphology score	phospholipidosis EC50 [µM]
A549-ACE2 [20], 24 h	–	–	–	–	5.44
A549-ACE2 [20], 48 h	–	–	–	–	9.46
A549-ACE2 [20], 72 h	–	–	–	–	4.98
Caco-2 [13], 1 nM	–	–	85.9	–	–
Caco-2 [13], 10 nM	–	–	94.5	–	–
Caco-2 [13], 100 nM	–	–	94.7	–	–
Caco-2 [13], 1000 nM	–	–	120	–	–
Caco-2 [13], 10000 nM	–	–	71.9	–	–
Calu-3 [11], 1 nM	–	–	102	–	–
Calu-3 [11], 10 nM	–	–	100	–	–
Calu-3 [11], 100 nM	–	–	100	–	–
Calu-3 [11], 1000 nM	–	–	100	–	–
Calu-3 [11], 10000 nM	–	–	73.1	–	–
HepG2 [14], 1 nM	–	–	104	–	–
HepG2 [14], 10 nM	–	–	104	–	–
HepG2 [14], 100 nM	–	–	105	–	–
HepG2 [14], 1000 nM	–	–	101	–	–
HepG2 [14], 10000 nM	–	–	72.3	–	–
U2OS [12], 1 nM	–	–	105	–	–
U2OS [12], 10 nM	–	–	95.3	–	–
U2OS [12], 100 nM	–	–	99.4	–	–
U2OS [12], 1000 nM	–	–	93.2	–	–
U2OS [12], 10000 nM	–	–	89.8	–	–
Vero E6 [15], 1 nM	–	–	96.6	–	–
Vero E6 [15], 10 nM	–	–	109	–	–
Vero E6 [15], 100 nM	–	–	105	–	–
Vero E6 [15], 1000 nM	–	–	101	–	–
Vero E6 [15], 10000 nM	–	–	74	–	–
[16], 0.1 µM	94	–	–	–	–
[16], 0.3 µM	103	–	–	–	–
[16], 1 µM	65	–	–	–	–
[16], 3 µM	30	–	–	–	–
[18], 0.1 µM	–	106	–	–	–
[18], 0.3 µM	–	99	–	–	–
[18], 1 µM	–	110	–	–	–
[18], 3 µM	–	129	–	–	–
[19], 0.1 µM	–	–	–	0.09	–
[19], 0.3 µM	–	–	–	-0.03	–
[19], 1 µM	–	–	–	0.65	–
[19], 3 µM	–	–	–	0.88	–

Details	drug sensitivity score	relative viability EC50 [µM]
Caco-2 [3]	0.6	–
Calu-3 [1]	1.1	–
HepG2 [4]	1.1	–
U2OS [2]	0	–
U2OS [7]	–	> 10
Vero E6 [5]	0.9	–

drug-induced phospholipidosis [%], A549-ACE2 [17]
Details	0.3 µM	0.833333 µM	3.33333 µM	6.66667 µM	10 µM	30 µM
24 h	0.41	9.1	52.9	78.2	91.4	121
48 h	4.61	5.46	39.9	75.4	93.7	145
72 h	4.08	3.27	28.5	66.5	82.7	–

CN1[C@@H]2CC[C@H]1C[C@@H](OC(c1ccccc1)c1ccccc1)C2 [benztropine-mesylate]
Details	SARS-CoV-2 infection rate [%]	cell count [%]	cell viability [%]	morphology score	phospholipidosis EC50 [µM]
A549-ACE2 [20], 24 h	–	–	–	–	8.44
A549-ACE2 [20], 48 h	–	–	–	–	9.6
A549-ACE2 [20], 72 h	–	–	–	–	9.86
Caco-2 [13], 1 nM	–	–	96.2	–	–
Caco-2 [13], 10 nM	–	–	98	–	–
Caco-2 [13], 100 nM	–	–	94.5	–	–
Caco-2 [13], 1000 nM	–	–	103	–	–
Caco-2 [13], 10000 nM	–	–	93	–	–
Calu-3 [11], 1 nM	–	–	101	–	–
Calu-3 [11], 10 nM	–	–	101	–	–
Calu-3 [11], 100 nM	–	–	109	–	–
Calu-3 [11], 1000 nM	–	–	116	–	–
Calu-3 [11], 10000 nM	–	–	94.2	–	–
HepG2 [14], 1 nM	–	–	103	–	–
HepG2 [14], 10 nM	–	–	102	–	–
HepG2 [14], 100 nM	–	–	103	–	–
HepG2 [14], 1000 nM	–	–	89	–	–
HepG2 [14], 10000 nM	–	–	92.1	–	–
U2OS [12], 1 nM	–	–	95.2	–	–
U2OS [12], 10 nM	–	–	98	–	–
U2OS [12], 100 nM	–	–	95.5	–	–
U2OS [12], 1000 nM	–	–	98.3	–	–
U2OS [12], 10000 nM	–	–	92.4	–	–
Vero E6 [15], 1 nM	–	–	99.4	–	–
Vero E6 [15], 10 nM	–	–	104	–	–
Vero E6 [15], 100 nM	–	–	103	–	–
Vero E6 [15], 1000 nM	–	–	97.5	–	–
Vero E6 [15], 10000 nM	–	–	93.8	–	–
[16], 0.3 µM	106	–	–	–	–
[16], 3 µM	60	–	–	–	–
[16], 10 µM	33	–	–	–	–
[16], 30 µM	12	–	–	–	–
[18], 0.3 µM	–	98	–	–	–
[18], 3 µM	–	112	–	–	–
[18], 10 µM	–	123	–	–	–
[18], 30 µM	–	120	–	–	–
[19], 0.3 µM	–	–	–	-0.15	–
[19], 3 µM	–	–	–	0.67	–
[19], 10 µM	–	–	–	0.82	–
[19], 30 µM	–	–	–	0.71	–

Details	drug sensitivity score	relative viability EC50 [µM]
Caco-2 [3]	0	–
Caco-2 [8]	–	> 10
Calu-3 [1]	0	–
Calu-3 [6]	–	> 10
HepG2 [4]	0.2	–
HepG2 [9]	–	> 10
U2OS [2]	0	–
U2OS [7]	–	> 10
Vero E6 [5]	0	–
Vero E6 [10]	–	> 10

drug-induced phospholipidosis [%], A549-ACE2 [17]
Details	0.3 µM	0.833333 µM	3.33333 µM	6.66667 µM	10 µM	30 µM
24 h	2.39	-1.85	12.3	31.1	63.2	94.2
48 h	3.49	2.96	8.82	25.8	58.8	103
72 h	4.91	3.92	10.9	27.1	59.7	107

NC(=O)N1CCC(CC(=O)N2CCC([C@H]3c4ncc(Br)cc4CCc4cc(Cl)cc(Br)c43)CC2)CC1 [lonafarnib]
Details	SARS-CoV-2 infection rate [%]	cell count [%]	cell viability [%]	morphology score	phospholipidosis EC50 [µM]
A549-ACE2 [20], 24 h	–	–	–	–	7.17
Caco-2 [13], 1 nM	–	–	91.3	–	–
Caco-2 [13], 10 nM	–	–	106	–	–
Caco-2 [13], 100 nM	–	–	94.6	–	–
Caco-2 [13], 1000 nM	–	–	79.7	–	–
Caco-2 [13], 10000 nM	–	–	47.7	–	–
Calu-3 [11], 1 nM	–	–	80.5	–	–
Calu-3 [11], 10 nM	–	–	91.2	–	–
Calu-3 [11], 100 nM	–	–	91.3	–	–
Calu-3 [11], 1000 nM	–	–	72.6	–	–
Calu-3 [11], 10000 nM	–	–	68.5	–	–
HepG2 [14], 1 nM	–	–	102	–	–
HepG2 [14], 10 nM	–	–	98.7	–	–
HepG2 [14], 100 nM	–	–	96.2	–	–
HepG2 [14], 1000 nM	–	–	89.5	–	–
HepG2 [14], 10000 nM	–	–	49.8	–	–
U2OS [12], 1 nM	–	–	97.5	–	–
U2OS [12], 10 nM	–	–	100	–	–
U2OS [12], 100 nM	–	–	95	–	–
U2OS [12], 1000 nM	–	–	92	–	–
U2OS [12], 10000 nM	–	–	67.2	–	–
Vero E6 [15], 1 nM	–	–	103	–	–
Vero E6 [15], 10 nM	–	–	94.1	–	–
Vero E6 [15], 100 nM	–	–	94.8	–	–
Vero E6 [15], 1000 nM	–	–	93.3	–	–
Vero E6 [15], 10000 nM	–	–	88.3	–	–
[16], 0.3 µM	97	–	–	–	–
[16], 3 µM	85	–	–	–	–
[16], 10 µM	71	–	–	–	–
[16], 30 µM	11	–	–	–	–
[18], 0.3 µM	–	98	–	–	–
[18], 3 µM	–	102	–	–	–
[18], 10 µM	–	94	–	–	–
[18], 30 µM	–	74	–	–	–
[19], 0.3 µM	–	–	–	0.19	–
[19], 3 µM	–	–	–	0.41	–
[19], 10 µM	–	–	–	0.69	–
[19], 30 µM	–	–	–	0.56	–

Details	drug sensitivity score	relative viability EC50 [µM]
Caco-2 [3]	5	–
Caco-2 [8]	–	1.29
Calu-3 [1]	6.3	–
HepG2 [4]	4.4	–
HepG2 [9]	–	1.7
U2OS [2]	2.6	–
Vero E6 [5]	0	–
Vero E6 [10]	–	> 10

drug-induced phospholipidosis [%], A549-ACE2 [17]
Details	0.3 µM	0.833333 µM	3.33333 µM	6.66667 µM	10 µM	30 µM
24 h	11.7	7.58	19.6	27.3	40.9	50.3
48 h	16.3	10.1	20.5	30.3	36.1	–
72 h	15.9	12.2	29.3	42.5	51.2	–
